{"source": "patent US10336762B2", "about": "(priority 2017, dated 2019)", "key": {"[1]": {"test_system": "TNFα", "assay": "cells", "format": "cell-based, human", "details": "Homo sapiens, Monocyte, LPS-stimulated human monocytes, read-out: EC50 TNF"}, "[2]": {"target": "IRAK4 enzyme (Homo sapiens (Human), UniProt Q9NWZ3)", "sequence (Q9NWZ3 whole entry)": "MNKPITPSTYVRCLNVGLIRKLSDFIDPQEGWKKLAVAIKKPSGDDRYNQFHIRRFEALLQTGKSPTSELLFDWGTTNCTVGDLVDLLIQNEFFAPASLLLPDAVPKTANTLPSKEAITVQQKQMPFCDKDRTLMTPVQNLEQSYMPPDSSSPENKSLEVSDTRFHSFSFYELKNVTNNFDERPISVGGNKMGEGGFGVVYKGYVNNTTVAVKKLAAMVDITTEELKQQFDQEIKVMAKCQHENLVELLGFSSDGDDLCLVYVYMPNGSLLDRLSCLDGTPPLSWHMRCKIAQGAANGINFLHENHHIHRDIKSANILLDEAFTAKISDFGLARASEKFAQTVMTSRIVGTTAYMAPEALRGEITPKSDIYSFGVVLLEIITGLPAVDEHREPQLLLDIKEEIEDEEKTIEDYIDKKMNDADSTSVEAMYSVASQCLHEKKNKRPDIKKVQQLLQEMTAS", "assay": "biochemical", "format": "biochemical", "details": "IRAK4 enzyme, 500 μM ATP"}}, "note": "Where two headings read alike, the source gives them in different places.", "data": [{"molecule": "CC(C)Nc1cc(-c2ccc3cc(C#N)cnn23)ncc1C(=O)NCCCS(C)(=O)=O", "note": "[Example 85, 6-(3-cyanopyrrolo[1,2-b]pyridazin-7-yl)-4-(isopropyl-amino)-N-(3-(methylsulfonyl)propyl) nicotinamide]", "values": [{"measurement": "EC50", "setting": "[1]; TNFα content", "value": 67, "unit": "nM"}, {"measurement": "IC50", "setting": "[2]; TR-FRET", "value": 1, "unit": "nM"}]}, {"molecule": "CC(C)(O)[C@H](F)CNC(=O)c1cnc(-c2ccc3cc(C#N)cnn23)cc1N[C@@H]1C[C@H]2CC[C@@H]1O2", "note": "[Example 94, 4-(((1S,2R,4R)-7-oxa-bicyclo[2.2.1]heptan-2-yl)amino)-6-(3-cyanopyrrolo[1,2-b]pyridazin-7-yl)-N-((R)-2-fluoro-3-hydroxy-3-methylbutyl)nicotinamide]", "values": [{"measurement": "EC50", "setting": "[1]; TNFα content", "value": 92, "unit": "nM"}, {"measurement": "IC50", "setting": "[2]; TR-FRET", "value": 1, "unit": "nM"}]}, {"molecule": "CC(C)(O)[C@H](F)CNC(=O)c1cnc(-c2ccc3cc(C#N)cnn23)cc1Nc1cnn(-c2ccncc2)c1", "note": "[Example 761, (R)-6-(3-cyanopyrrolo[1,2-b]pyridazin-7-yl)-N-(2-fluoro-3-hydroxy-3-methylbutyl)-4-((1-(pyridin-4-yl)-1H-pyrazol-4-yl)amino) nicotinamide]", "values": [{"measurement": "EC50", "setting": "[1]; TNFα content", "value": 26, "unit": "nM"}, {"measurement": "IC50", "setting": "[2]; TR-FRET (HTRF)", "value": "< 1", "unit": "nM"}]}, {"molecule": "CC(C)(O)[C@H](F)CNC(=O)c1cnc(-c2ccc3cc(C#N)cnn23)cc1NC12CCC(N3CCOCC3)(CC1)CC2", "note": "[Example 780, (R)-6-(3-cyanopyrrolo[1,2-b]pyridazin-7-yl)-N-(2-fluoro-3-hydroxy-3-methylbutyl)-4-((4-morpholinobicyclo[2.2.2]octan-1-yl)amino)nicotinamide]", "values": [{"measurement": "EC50", "setting": "[1]; TNFα content", "value": 38, "unit": "nM"}, {"measurement": "IC50", "setting": "[2]; TR-FRET (HTRF)", "value": 1, "unit": "nM"}]}, {"molecule": "COC(=O)N(C)C[C@H]1C[C@H](Nc2cc(-c3ccc4cc(C#N)cnn34)ncc2C(=O)NC[C@@H](F)C(C)(C)O)C1", "note": "[Example 620, Methyl (((1R,3r)-3-((2-(3-cyanopyrrolo[1,2-b]pyridazin-7-yl)-5-(((R)-2-fluoro-3-hydroxy-3-methylbutyl)carbamoyl)pyridin-4-yl)amino)cyclobutyl)methyl)(methyl)carbamate]", "values": [{"measurement": "EC50", "setting": "[1]; TNFα content", "value": 54, "unit": "nM"}, {"measurement": "IC50", "setting": "[2]; TR-FRET (HTRF)", "value": 1, "unit": "nM"}]}, {"molecule": "N#Cc1cnn2c(-c3cc(NC45CCC(O)(CC4)CC5)c(C(=O)NCC(=O)N4CC(F)C4)cn3)ccc2c1", "note": "[Example 787, 6-(3-cyanopyrrolo[1,2-b]pyridazin-7-yl)-N-(2-(3-fluoroazetidin-1-yl)-2-oxoethyl)-4-((4-hydroxybicyclo[2.2.2]octan-1-yl)amino) nicotinamide]", "values": [{"measurement": "EC50", "setting": "[1]; TNFα content", "value": 79, "unit": "nM"}, {"measurement": "IC50", "setting": "[2]; TR-FRET (HTRF)", "value": "< 1", "unit": "nM"}]}, {"molecule": "Cc1ccc(Nc2cc(-c3ccc4cc(C#N)cnn34)ncc2C(=O)NC[C@@H](F)C(C)(C)O)cn1", "note": "[Example 184, (R)-6-(3-cyanopyrrolo[1,2-b]pyridazin-7-yl)-N-(2-fluoro-3-hydroxy-3-methylbutyl)-4-((6-methylpyridin-3-yl)amino)nicotinamide]", "values": [{"measurement": "EC50", "setting": "[1]; TNFα content", "value": 48, "unit": "nM"}, {"measurement": "IC50", "setting": "[2]; TR-FRET", "value": "< 1", "unit": "nM"}]}, {"molecule": "CC(C)(O)[C@H](F)CNC(=O)c1cnc(-c2ccc3cc(C#N)cnn23)cc1Nc1cnc(N2CC3CC(C2)O3)nc1", "note": "[Example 920, 4-((2-(6-oxa-3-aza-bicyclo[3.1.1]heptan-3-yl)pyrimidin-5-yl)amino)-6-(3-cyanopyrrolo[1,2-b]pyridazin-7-yl)-N-((R)-2-fluoro-3-hydroxy-3-methyl-butyl)nicotinamide]", "values": [{"measurement": "EC50", "setting": "[1]; TNFα by TR-FRET", "value": 8, "unit": "nM"}, {"measurement": "IC50", "setting": "[2]; TR-FRET", "value": "< 1", "unit": "nM"}]}, {"molecule": "COC(=O)NC12CC(Nc3cc(-c4ccc5cc(C#N)cnn45)ncc3C(=O)NCC#N)(C1)C2", "note": "[Example 487, methyl (3-((5-((cyanomethyl)carbamoyl)-2-(3-cyanopyrrolo[1,2-b]pyridazin-7-yl)pyridin-4-yl)amino)bicyclo[1.1.1]pentan-1-yl)carbamate]", "values": [{"measurement": "EC50", "setting": "[1]; TNFα content", "value": 51, "unit": "nM"}, {"measurement": "IC50", "setting": "[2]; TR-FRET (HTRF)", "value": "< 1", "unit": "nM"}]}, {"molecule": "CC(C)(O)[C@H](F)CNC(=O)c1cnc(-c2ccc3cc(C#N)cnn23)cc1NC1CC1CO", "note": "(single isomer, unassigned) [Example 302]", "values": [{"measurement": "EC50", "setting": "[1]; TNFα content", "value": 61, "unit": "nM"}, {"measurement": "IC50", "setting": "[2]; TR-FRET", "value": 1, "unit": "nM"}]}, {"molecule": "Cc1ncoc1-c1ccc(Nc2cc(-c3ccc4cc(C#N)cnn34)ncc2C(=O)NC[C@@H](F)C(C)(C)O)cc1", "note": "[Example 629, (R)-6-(3-cyanopyrrolo[1,2-b]pyridazin-7-yl)-N-(2-fluoro-3-hydroxy-3-methylbutyl)-4-((4-(4-methyloxazol-5-yl)phenyl)amino)nicotinamide]", "values": [{"measurement": "EC50", "setting": "[1]; TNFα content", "value": 22, "unit": "nM"}, {"measurement": "IC50", "setting": "[2]; TR-FRET (HTRF)", "value": "< 1", "unit": "nM"}]}, {"molecule": "N#CCNC(=O)c1cnc(-c2ccc3cc(C#N)cnn23)cc1NC1COC1", "note": "[Example 460, N-(cyanomethyl)-6-(3-cyanopyrrolo[1,2-b]pyridazin-7-yl)-4-(oxetan-3-ylamino) nicotinamide]", "values": [{"measurement": "EC50", "setting": "[1]; TNFα content", "value": 71, "unit": "nM"}, {"measurement": "IC50", "setting": "[2]; TR-FRET (HTRF)", "value": "< 1", "unit": "nM"}]}, {"molecule": "CC(C)(O)[C@H](F)CNC(=O)c1cnc(-c2ccc3cc(C#N)cnn23)cc1NC1CCS(=O)(=O)CC1", "note": "[Example 75, (R)-6-(3-cyanopyrrolo[1,2-b]pyridazin-7-yl)-4-((1,1-dioxidotetrahydro-2H-thiopyran-4-yl)amino)-N-(2-fluoro-3-hydroxy-3-methylbutyl) nicotinamide]", "values": [{"measurement": "EC50", "setting": "[1]; TNFα content", "value": 544, "unit": "nM"}, {"measurement": "IC50", "setting": "[2]; TR-FRET", "value": 3, "unit": "nM"}]}, {"molecule": "COC1(C)CN(C(=O)C23CCC(Nc4cc(-c5ccc6cc(C#N)cnn56)ncc4C(=O)NC[C@@H](F)C(C)(C)O)(CC2)CC3)C1", "note": "[Example 158, (R)-6-(3-cyanopyrrolo[1,2-b]pyridazin 7-yl)-N-(2-fluoro-3-hydroxy-3-methylbutyl)-4-((4-(3-methoxy-3-methylazetidine-1-carbonyl)bicyclo[2.2.2]octan-1-yl)amino)nicotinamide]", "values": [{"measurement": "EC50", "setting": "[1]; TNFα content", "value": 99, "unit": "nM"}, {"measurement": "IC50", "setting": "[2]; TR-FRET", "value": 2, "unit": "nM"}]}, {"molecule": "CC1(O)CN(C(=O)CNC(=O)c2cnc(-c3ccc4cc(C#N)cnn34)cc2NC23CCC(O)(CC2)CC3)C1", "note": "[Example 954, 6-(3-cyanopyrrolo[1,2-b]pyridazin-7-yl)-N-(2-(3-hydroxy-3-methylazetidin-1-yl)-2-oxoethyl)-4-((4-hydroxybicyclo[2.2.2]octan-1-yl)amino) nicotinamide]", "values": [{"measurement": "EC50", "setting": "[1]; TNFα by TR-FRET", "value": 213, "unit": "nM"}, {"measurement": "IC50", "setting": "[2]; TR-FRET", "value": "< 1", "unit": "nM"}]}, {"molecule": "CC(C)(O)[C@H](F)CNC(=O)c1cnc(-c2ccc3cc(C#N)cnn23)cc1Nc1cnn(C2CCNCC2)c1", "note": "[Example 236, (R)-6-(3-cyanopyrrolo[1,2-b]pyridazin-7-yl)-N-(2-fluoro-3-hydroxy-3-methylbutyl)-4-((1-(piperidin-4-yl)-1H-pyrazol-4-yl)amino) nicotinamide]", "values": [{"measurement": "EC50", "setting": "[1]; TNFα content", "value": 379, "unit": "nM"}, {"measurement": "IC50", "setting": "[2]; TR-FRET", "value": 1, "unit": "nM"}]}, {"molecule": "CC(C)Nc1cc(-c2ccc3cc(C#N)cnn23)ncc1C(=O)NC1CC2(C1)CC(C(C)(C)O)C2", "note": "(stereo not shown) [Example 5, 6-(3-cyanopyrrolo[1,2-b]pyridazin-7-yl)-N-(6-(2-hydroxypropan-2-yl)spiro[3.3]heptan-2-yl)-4-(isopropylamino)nicotinamide]", "values": [{"measurement": "EC50", "setting": "[1]; TNFα content", "value": 207, "unit": "nM"}, {"measurement": "IC50", "setting": "[2]; TR-FRET", "value": "< 1", "unit": "nM"}]}, {"molecule": "CC(C)Nc1cc(-c2ccc3cc(C#N)cnn23)ncc1C(=O)NC1CCC(C)(O)CC1", "note": "(stereo not shown) [Example 90, 6-(3-cyanopyrrolo[1,2-b]pyridazin-7-yl)-N-((1s,4s)-4-hydroxy-4-methylcyclohexyl)-4-(isopropylamino) nicotinamide]", "values": [{"measurement": "EC50", "setting": "[1]; TNFα content", "value": 417, "unit": "nM"}, {"measurement": "IC50", "setting": "[2]; TR-FRET", "value": 3, "unit": "nM"}]}, {"molecule": "COCCNc1cc(-c2ccc3cc(C#N)cnn23)ncc1C(=O)NC[C@@H](F)C(C)(C)O", "note": "[Example 100, (R)-6-(3-cyanopyrrolo[1,2-b]pyridazin-7-yl)-N-(2-fluoro-3-hydroxy-3-methylbutyl)-4-((2-methoxyethyl)amino) nicotinamide]", "values": [{"measurement": "EC50", "setting": "[1]; TNFα content", "value": 195, "unit": "nM"}, {"measurement": "IC50", "setting": "[2]; TR-FRET", "value": 4, "unit": "nM"}]}, {"molecule": "CC(C)(O)[C@H](F)CNC(=O)c1cnc(-c2ccc3cc(C#N)cnn23)cc1Nc1ccc(-n2ccnc2)nc1", "note": "[Example 768, (R)-4-((6-(1H-imidazol-1-yl)pyridin-3-yl)amino)-6-(3-cyanopyrrolo[1,2-b]pyridazin-7-yl)-N-(2-fluoro-3-hydroxy-3-methyl-butyl)nicotinamide]", "values": [{"measurement": "EC50", "setting": "[1]; TNFα content", "value": 24, "unit": "nM"}, {"measurement": "IC50", "setting": "[2]; TR-FRET (HTRF)", "value": "< 1", "unit": "nM"}]}]}
